According to patent US10472356B2, “Bicyclic ketone sulfonamide compounds” (AMGEN INC., priority 2015, dated 2019):

Experiments:
Assay type in all cases: cell-based
[1] = target: T1, human Nav1.7 (Homo sapiens, UniProt Q15858); experiment: Nav 1.7 In Vitro PatchXpress (PX) Assay; settings: HEK 293 cells stably transfected with human Nav1.7; PatchXpress whole cell voltage clamp; partially inactivated state (holding potential yielding 20 to 50% inactivation); read-out: hNav1.7 PX IC50
T1 construct: expressed in transfected cells; host or cells: HEK293
T1 sequence (Q15858 whole entry): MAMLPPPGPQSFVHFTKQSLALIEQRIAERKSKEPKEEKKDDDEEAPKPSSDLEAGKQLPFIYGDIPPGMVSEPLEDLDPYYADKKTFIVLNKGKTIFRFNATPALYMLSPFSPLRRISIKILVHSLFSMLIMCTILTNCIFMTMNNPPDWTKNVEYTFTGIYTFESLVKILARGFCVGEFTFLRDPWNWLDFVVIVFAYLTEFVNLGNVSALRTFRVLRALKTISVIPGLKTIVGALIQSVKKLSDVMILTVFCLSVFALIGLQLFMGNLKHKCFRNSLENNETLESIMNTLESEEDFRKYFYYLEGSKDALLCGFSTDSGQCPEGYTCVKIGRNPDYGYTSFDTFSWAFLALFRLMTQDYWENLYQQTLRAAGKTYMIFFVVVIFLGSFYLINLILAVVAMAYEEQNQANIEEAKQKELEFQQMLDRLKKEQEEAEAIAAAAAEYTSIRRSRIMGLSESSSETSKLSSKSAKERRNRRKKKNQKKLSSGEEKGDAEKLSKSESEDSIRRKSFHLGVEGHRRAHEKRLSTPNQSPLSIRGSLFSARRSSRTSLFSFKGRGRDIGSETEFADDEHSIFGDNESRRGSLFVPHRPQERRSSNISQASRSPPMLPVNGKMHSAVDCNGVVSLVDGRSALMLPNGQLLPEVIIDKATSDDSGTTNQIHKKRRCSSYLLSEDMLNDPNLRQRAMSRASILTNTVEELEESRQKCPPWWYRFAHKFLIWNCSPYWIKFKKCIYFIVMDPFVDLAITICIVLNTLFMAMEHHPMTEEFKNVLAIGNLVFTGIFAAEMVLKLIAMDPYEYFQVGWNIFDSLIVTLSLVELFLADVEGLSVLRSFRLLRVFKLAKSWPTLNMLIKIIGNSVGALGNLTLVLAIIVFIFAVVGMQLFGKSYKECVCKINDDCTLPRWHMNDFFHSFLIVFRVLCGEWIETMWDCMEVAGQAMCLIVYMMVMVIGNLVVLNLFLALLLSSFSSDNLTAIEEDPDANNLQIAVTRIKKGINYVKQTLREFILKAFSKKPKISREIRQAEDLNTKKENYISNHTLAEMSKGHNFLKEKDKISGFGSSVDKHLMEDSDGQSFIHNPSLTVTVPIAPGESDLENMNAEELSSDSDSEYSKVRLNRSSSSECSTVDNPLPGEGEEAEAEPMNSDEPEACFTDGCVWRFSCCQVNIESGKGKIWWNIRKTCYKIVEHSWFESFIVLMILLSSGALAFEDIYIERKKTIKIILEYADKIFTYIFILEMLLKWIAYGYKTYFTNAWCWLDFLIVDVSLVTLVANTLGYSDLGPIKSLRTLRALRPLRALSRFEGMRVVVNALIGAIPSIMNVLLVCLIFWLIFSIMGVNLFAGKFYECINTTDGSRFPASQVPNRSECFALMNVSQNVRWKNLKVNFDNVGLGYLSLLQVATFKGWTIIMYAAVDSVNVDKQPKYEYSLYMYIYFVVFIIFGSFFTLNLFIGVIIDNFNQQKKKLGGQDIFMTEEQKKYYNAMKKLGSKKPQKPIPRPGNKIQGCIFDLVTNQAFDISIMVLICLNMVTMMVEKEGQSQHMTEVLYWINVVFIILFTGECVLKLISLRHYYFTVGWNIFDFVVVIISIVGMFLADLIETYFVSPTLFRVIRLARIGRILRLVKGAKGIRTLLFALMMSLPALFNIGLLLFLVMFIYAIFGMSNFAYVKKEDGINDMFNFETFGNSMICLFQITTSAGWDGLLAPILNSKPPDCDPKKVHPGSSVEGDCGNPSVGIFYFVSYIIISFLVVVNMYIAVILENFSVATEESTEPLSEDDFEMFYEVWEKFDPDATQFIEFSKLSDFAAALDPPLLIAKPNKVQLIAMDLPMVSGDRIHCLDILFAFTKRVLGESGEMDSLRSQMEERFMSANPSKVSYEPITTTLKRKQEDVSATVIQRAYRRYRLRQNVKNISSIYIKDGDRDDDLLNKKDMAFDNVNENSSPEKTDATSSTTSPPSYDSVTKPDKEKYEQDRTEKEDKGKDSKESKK
How it was run: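 Percent inhibition of peak sodium current taken after 3 min exposure to one compound concentration, 3–5 cells each, with IC50 curve fits. Partially inactivated channels (20–50% inactivation at holding potential) in Nav1.7-HEK 293 cells, activated by 20 ms steps to −10 mV every 10 s.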

[2] = target: T1, human Nav1.7; experiment: Nav 1.7 IWQ In Vitro Assay (IonWorks Quattro); settings: HEK293 cells stably transfected with human Nav 1.7; IonWorks Quattro population patch-clamp; 26th pulse to −20 mV, 5 Hz; cells unclamped 5 to 8 minutes with compound; read-out: hNav1.7 IWQ IC50
Experimental: Nav 1.7 or Nav 1.5 IWQ In Vitro Assay
HEK293 cells stably transfected with either human Nav 1.7 or human Nav 1.5 were recorded in population patch-clamp mode with the IonWorks® Quattro automated electrophysiology system (Molecular Devices, LLC, Sunnyvale, Calif.). Cells were voltage clamped to −110 mV for three seconds (Nav 1.7) or half a second (Nav 1.5) and sodium currents were elicited by a train of 26 depolarizations of 150 msec duration to −20 mV (Nav 1.7) or 0 mV (Nav 1.5) at a frequency of 5 Hz. Cells were then left unclamped for a period of 5 to 8 minutes while a single concentration of test compound was added. Following this compound incubation period, cells were then reclamped to −110 mV for three seconds (Nav1.7) or half a second (Nav1.5) to recover unbound channels and put through the same 26 pulse voltage protocol as above. Peak inward current during the 26th pulse to −20 mV (Nav 1.7) or 0 mV (Nav 1.5) in the presence of compound was divided by the peak inward current evoked by the 26th pulse to −20 mV (Nav1.7) or 0 mV (Nav1.5) in the absence of compound to determine percent inhibition. Concentration-response curves of percent.

[3] = target: T1, human Nav1.7; experiment: Nav 1.7 IWB In Vitro Assay (IonWorks Barracuda); settings: HEK293 cells stably transfected with human Nav 1.7; IonWorks Barracuda population patch-clamp; cells clamped to −20 mV for 4 minutes with compound; 26th pulse; read-out: hNav1.7 IWB IC50
How it was run: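 IC50 derived from concentration-response of percent block of the 26th-pulse peak inward current, compound vs none. Protocol: stable human Nav 1.7 HEK293 cells on automated population patch clamp, held at −110 mV, 5 Hz train of 150 ms steps to −20 mV, 4 min compound exposure depolarized at −20 mV, 3 s repolarization, train repeated.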

IC50 [1] | IC50 [2] | IC50 [3] | SMILES
76.3 nM | 7.8 nM | 14.3 nM | COc1cc(-c2cc(F)cc(Cl)c2)ccc1-n1c2c(ccc1=O)CN(S(=O)(=O)Nc1ccon1)CC2 (single isomer, unassigned) [Example 7-P, P-1-(3′-chloro-5′-fluoro-3-methoxy-4-biphenylyl)-N-3-isoxazolyl-2-oxo-1,5,7,8-tetrahydro-1,6-naphthyridine-6(2H)-sulfonamide]
17.5 nM | 2.9 nM | 3.9 nM | COc1cc(-c2cc(F)cc(Cl)c2)c(F)cc1-n1c2c(ccc1=O)CN(S(=O)(=O)Nc1ccon1)CC2 (single isomer, unassigned) [Example 18-P, P-1-(3′-chloro-2,5′-difluoro-5-methoxy-4-biphenylyl)-N-3-isoxazolyl-2-oxo-1,5,7,8-tetrahydro-1,6-naphthyridine-6(2H)-sulfonamide]
40.5 nM | 1.3 nM | 4.4 nM | COc1cc(-c2cc(Cl)cc(OC(F)(F)F)c2)c(F)cc1-n1c2c(ccc1=O)CN(S(=O)(=O)Nc1cccnn1)CC2 [Example 77, P-1-(3′-chloro-2-fluoro-5-methoxy-5′-(trifluoromethoxy)-[1,1′-biphenyl]-4-yl)-2-oxo-N-(pyridazin-3-yl)-1,2,7,8-tetrahydro-1,6-naphthyridine-6(5H)-sulfonamide]
159 nM | 6.7 nM | 31.5 nM | COc1cc(-c2ccc(F)c(F)c2)c(F)cc1-n1c2c(ccc1=O)CN(S(=O)(=O)Nc1ccon1)CC2 (racemic) [Example 20-(Rac), (Rac)-N-3-isoxazolyl-2-oxo-1-(2,3′,4′-trifluoro-5-methoxy-4-biphenylyl)-1,5,7,8-tetrahydro-1,6-naphthyridine-6(2H)-sulfonamide]
192 nM | 9.2 nM | 12.2 nM | COc1cc(C#CC2CCCC2)c(F)cc1-n1c2c(ccc1=O)CN(S(=O)(=O)Nc1ccon1)CC2 (single isomer, unassigned) [Example 34-P, P-1-(4-(cyclopentylethynyl)-5-fluoro-2-methoxyphenyl)-N-3-isoxazolyl-2-oxo-1,5,7,8-tetrahydro-1,6-naphthyridine-6(2H)-sulfonamide]
38.8 nM | 4.7 nM | 5.3 nM | COc1cc(-c2cccc(C(F)(F)F)c2)c(F)cc1-n1c2c(ccc1=O)CN(S(=O)(=O)Nc1ccon1)CC2 (racemic) [Example 16-(Rac), (Rac)-1-(2-fluoro-5-methoxy-3′-(trifluoromethyl)-4-biphenylyl)-N-3-isoxazolyl-2-oxo-1,5,7,8-tetrahydro-1,6-naphthyridine-6(2H)-sulfonamide]
74.2 nM | 2.4 nM | 5.3 nM | COc1cc(-c2cccc(OCC(F)(F)F)c2)c(F)cc1-n1c2c(ccc1=O)CN(S(=O)(=O)Nc1cccnn1)CC2 [Example 68, P-1-(2-fluoro-5-methoxy-3′-(2,2,2-trifluoroethoxy)-[1,1′-biphenyl]-4-yl)-2-oxo-N-(pyridazin-3-yl)-1,2,7,8-tetrahydro-1,6-naphthyridine-6(5H)-sulfonamide]
117 nM | 5.5 nM | 15.6 nM | COc1cc(-c2cccc(OC(F)F)c2)c(F)cc1-n1c2c(ccc1=O)CN(S(=O)(=O)Nc1ccon1)CC2 (racemic) [Example 19-(Rac), (Rac)-1-(3′-(difluoromethoxy)-2-fluoro-5-methoxy-4-biphenylyl)-N-3-isoxazolyl-2-oxo-1,5,7,8-tetrahydro-1,6-naphthyridine-6(2H)-sulfonamide]
29.4 nM | 2.8 nM | 6.9 nM | COc1cc(-c2ccc(F)c(C(F)(F)F)c2)c(F)cc1-n1c2c(ccc1=O)CN(S(=O)(=O)Nc1cccnn1)CC2 [Example 71, P-1-(2,4′-difluoro-5-methoxy-3′-(trifluoromethyl)-[1,1′-biphenyl]-4-yl)-2-oxo-N-(pyridazin-3-yl)-1,2,7,8-tetrahydro-1,6-naphthyridine-6(5H)-sulfonamide]
107 nM | 19.4 nM | 9.2 nM | COc1cc(-c2cc(OC)c(-n3c4c(ccc3=O)CN(S(=O)(=O)Nc3ccon3)CC4)cc2F)ccc1C (single isomer, unassigned) [Example 58-P, P-1-(2-fluoro-3′,5-dimethoxy-4′-methyl-4-biphenylyl)-N-3-isoxazolyl-2-oxo-1,5,7,8-tetrahydro-1,6-naphthyridine-6(2H)-sulfonamide]
18 nM | 2.1 nM | 3.1 nM | COc1cc(-c2cc(Cl)ccc2C)c(F)cc1-n1c2c(ccc1=O)CN(S(=O)(=O)Nc1ccon1)CC2 (single isomer, unassigned) [Example 9-P, P-1-(5′-chloro-2-fluoro-5-methoxy-2′-methyl-4-biphenylyl)-N-3-isoxazolyl-2-oxo-1,5,7,8-tetrahydro-1,6-naphthyridine-6(2H)-sulfonamide]
20.9 nM | 5.2 nM | 3.8 nM | COc1cc(-c2ccc(Cl)c(C)c2)c(F)cc1-n1c2c(ccc1=O)CN(S(=O)(=O)Nc1ccon1)CC2 (single isomer, unassigned) [Example 24-P, P-1-(4′-chloro-2-fluoro-5-methoxy-3′-methyl-4-biphenylyl)-N-3-isoxazolyl-2-oxo-1,5,7,8-tetrahydro-1,6-naphthyridine-6(2H)-sulfonamide]
44.5 nM | 56.6 nM | 52.5 nM | COc1cc(-c2cc(F)cc(Cl)c2)c(F)cc1-n1c2c(ccc1=O)CN(S(=O)(=O)Nc1ccc(F)cn1)CC2 (single isomer, unassigned) [Example 12-P, P-1-(3′-chloro-2,5′-difluoro-5-methoxy-4-biphenylyl)-N-(5-fluoro-2-pyridinyl)-2-oxo-1,5,7,8-tetrahydro-1,6-naphthyridine-6(2H)-sulfonamide]
166 nM | 54 nM | 55.3 nM | COc1cc(-c2cc(F)cc(Cl)c2)c(F)cc1-n1c2c(ccc1=O)CN(S(=O)(=O)Nc1ccccn1)CC2 (single isomer, unassigned) [Example 11-P, P-1-(3′-chloro-2,5′-difluoro-5-methoxy-4-biphenylyl)-2-oxo-N-2-pyridinyl-1,5,7,8-tetrahydro-1,6-naphthyridine-6(2H)-sulfonamide]
87.8 nM | 16.7 nM | 10.2 nM | COc1cc(-c2cc(F)cc(Cl)c2)c(F)cc1-n1c2c(ccc1=O)CN(S(=O)(=O)Nc1cccnn1)CC2 (racemic) [Example 38-(Rac), (Rac)-1-(3′-chloro-2,5′-difluoro-5-methoxy-4-biphenylyl)-2-oxo-N-3-pyridazinyl-1,5,7,8-tetrahydro-1,6-naphthyridine-6(2H)-sulfonamide]
106 nM | 3.2 nM | 8 nM | COc1cc(-c2ccc(F)c(C)c2)c(F)cc1-n1c2c(ccc1=O)CN(S(=O)(=O)Nc1ccon1)CC2 (single isomer, unassigned) [Example 22-P, P-1-(2,4′-difluoro-5-methoxy-3′-methyl-4-biphenylyl)-N-3-isoxazolyl-2-oxo-1,5,7,8-tetrahydro-1,6-naphthyridine-6(2H)-sulfonamide]
37.1 nM | 2.3 nM | 3.8 nM | COc1cc(-c2cccc(OC(F)(F)F)c2)c(F)cc1-n1c2c(ccc1=O)CN(S(=O)(=O)Nc1cccnn1)CC2 [Example 66, P-1-(2-fluoro-5-methoxy-3′-(trifluoromethoxy)-[1,1′-biphenyl]-4-yl)-2-oxo-N-(pyridazin-3-yl)-1,2,7,8-tetrahydro-1,6-naphthyridine-6(5H)-sulfonamide]
259 nM | < 19 nM | 6.6 nM | COc1cc(-c2cc(OC)c(-n3c4c(ccc3=O)CN(S(=O)(=O)Nc3cccnn3)CC4)cc2F)ccc1Cl (single isomer, unassigned) [Example 2-P, P-1-(4′-chloro-2-fluoro-3′,5-dimethoxy-4-biphenylyl)-2-oxo-N-3-pyridazinyl-1,5,7,8-tetrahydro-1,6-naphthyridine-6(2H)-sulfonamide]
15.8 nM | 2.6 nM | 2.4 nM | COc1cc(-c2cccc(C(F)(F)F)c2)c(F)cc1-n1c2c(ccc1=O)CN(S(=O)(=O)Nc1ccon1)CC2 (single isomer, unassigned) [Example 16-P, P-1-(2-fluoro-5-methoxy-3′-(trifluoromethyl)-4-biphenylyl)-N-3-isoxazolyl-2-oxo-1,5,7,8-tetrahydro-1,6-naphthyridine-6(2H)-sulfonamide]
